According to PubChem BioAssay AID248 (DTP/NCI, 2004):
“And” between values parts separate entries of the source, which are not always exact repeats. Identical values can stand only once. Toxic doses and inconclusive results are not listed.

Tested on: L1210 leukemia ip in BDF1 mice, survival T/C
Test: NCI In Vivo Anticancer Drug Screen. Data for tumor model L1210 Leukemia (intraperitoneal) in B6D2F1 (BDF1) mice
Settings: endpoint: mean survival time, higher = longer survival
Summary of the method: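 Antitumor effect is assessed in tumor-bearing animals. Survival in the compound arm is compared with a vehicle-dosed control arm and expressed as their quotient.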

[1] = dose: 100.0 mg/kg/injection, schedule: Q04DX003 (ip), vehicle: saline with Tween-80
[2] = dose: 200.0 mg/kg/injection, schedule: Q04DX003 (ip), vehicle: saline with Tween-80
[3] = dose: 400.0 mg/kg/injection, schedule: Q04DX003 (ip), vehicle: saline with Tween-80
[4] = dose: 100.0 mg/kg/injection, schedule: Q01DX001 (ip), vehicle: saline
[5] = dose: 200.0 mg/kg/injection, schedule: Q01DX001 (ip), vehicle: saline
[6] = dose: 400.0 mg/kg/injection, schedule: Q01DX001 (ip), vehicle: saline
[7] = dose: 25.0 mg/kg/injection, schedule: Q01DX009 (ip), vehicle: saline with Tween-80
[8] = dose: 50.0 mg/kg/injection, schedule: Q01DX009 (ip), vehicle: saline with Tween-80
[9] = dose: 100.0 mg/kg/injection, schedule: Q04DX003 (ip), vehicle: Klucel (hydroxypropylcellulose) (HPC)
[10] = dose: 200.0 mg/kg/injection, schedule: Q04DX003 (ip), vehicle: Klucel (hydroxypropylcellulose) (HPC)
[11] = dose: 400.0 mg/kg/injection, schedule: Q04DX003 (ip), vehicle: Klucel (hydroxypropylcellulose) (HPC)
[12] = dose: 6.25 mg/kg/injection, schedule: Q01DX009 (ip), vehicle: saline with Tween-80
[13] = dose: 12.5 mg/kg/injection, schedule: Q01DX009 (ip), vehicle: saline with Tween-80
[14] = dose: 100.0 mg/kg/injection, schedule: Q01DX009 (ip), vehicle: Klucel (hydroxypropylcellulose) (HPC)
[15] = dose: 200.0 mg/kg/injection, schedule: Q01DX009 (ip), vehicle: Klucel (hydroxypropylcellulose) (HPC)
[16] = dose: 400.0 mg/kg/injection, schedule: Q01DX009 (ip), vehicle: Klucel (hydroxypropylcellulose) (HPC)
[17] = dose: 100.0 mg/kg/injection, schedule: Q01DX001 (ip), vehicle: Klucel (hydroxypropylcellulose) (HPC)
[18] = dose: 200.0 mg/kg/injection, schedule: Q01DX001 (ip), vehicle: Klucel (hydroxypropylcellulose) (HPC)
[19] = dose: 400.0 mg/kg/injection, schedule: Q01DX001 (ip), vehicle: Klucel (hydroxypropylcellulose) (HPC)
[20] = dose: 100.0 mg/kg/injection, schedule: Q04DX003 (ip), vehicle: saline
[21] = dose: 200.0 mg/kg/injection, schedule: Q04DX003 (ip), vehicle: saline
[22] = dose: 400.0 mg/kg/injection, schedule: Q04DX003 (ip), vehicle: saline

## CNC(=O)Nc1ccccc1C(=O)NN
dose: 100.0 mg/kg/injection, schedule: Q01DX009 (ip), vehicle: other
  T/C: 100 % of control
dose: 200.0 mg/kg/injection, schedule: Q01DX009 (ip), vehicle: other
  T/C: 96 % of control

## COC1OCC(N=[N+]=[N-])C(OS(C)(=O)=O)C1OS(C)(=O)=O (stereo not given)
[1]
  T/C: 94 % of control
[2]
  T/C: 90 % of control
[3]
  T/C: 92 % of control

## CSC(=NC1CCCCC1)Nc1ccccc1
dose: 100.0 mg/kg/injection, schedule: Q01DX001 (ip), vehicle: other
  T/C: 98 % of control
dose: 200.0 mg/kg/injection, schedule: Q01DX001 (ip), vehicle: other
  T/C: 98 % of control
dose: 400.0 mg/kg/injection, schedule: Q01DX001 (ip), vehicle: other
  T/C: 88 % of control

## O=C(O)C(Cc1ccc(O)c([N+](=O)[O-])c1)N1C(=O)c2ccccc2C1=O (stereo not given)
[4]
  T/C: 101 % of control
[5]
  T/C: 95 % of control
[6]
  T/C: 95 % of control

## Cn1c(=O)c2c(ncn2C)n(C)c1=O (tested in a mixture with another compound)
[1]
  T/C: 98 % of control
[2]
  T/C: 101 % of control
[3]
  T/C: 114 % of control

## COc1ccc(OC)c(NC(=O)NNC(=O)c2ccccc2Cl)c1
[7]
  T/C: 100 % of control
[8]
  T/C: 91 % of control
dose: 100.0 mg/kg/injection, schedule: Q01DX009 (ip), vehicle: saline with Tween-80
  T/C: 94 % of control

## CC(=O)NC1CON(C(C)=O)C1=O (stereo not given)
[9]
  T/C: 97 % of control
[10]
  T/C: 103 % of control
[11]
  T/C: 103 % of control

## CC12CCCCC1C(C(=O)O)CC2 (stereo not given)
dose: 100.0 mg/kg/injection, schedule: Q04DX002 (ip), vehicle: saline with Tween-80
  T/C: 105 % of control
dose: 200.0 mg/kg/injection, schedule: Q04DX002 (ip), vehicle: saline with Tween-80
  T/C: 105 % of control
dose: 400.0 mg/kg/injection, schedule: Q04DX002 (ip), vehicle: saline with Tween-80
  T/C: 92 % of control

## CCC(=O)c1ccc2c(c1)N(CCCN(C)C)c1ccccc1S2
[12]
  T/C: 98 % of control
[13]
  T/C: 96 % of control
[7]
  T/C: 115 % of control
[8]
  T/C: 107 % of control

## COc1cc(C=Nc2cc(Cl)c(O)c(Cl)c2)ccc1N(CCCl)CCCl
dose: 1.4 mg/kg/injection, schedule: Q01DX009 (ip), vehicle: carboxymethylcellulose (CMC)
  T/C: 113 % of control
dose: 2.1 mg/kg/injection, schedule: Q01DX009 (ip), vehicle: carboxymethylcellulose (CMC)
  T/C: 105 % of control
dose: 5.3 mg/kg/injection, schedule: Q01DX009 (ip), vehicle: carboxymethylcellulose (CMC)
  T/C: 112 % of control
dose: 10.0 mg/kg/injection, schedule: Q01DX009 (ip), vehicle: carboxymethylcellulose (CMC)
  T/C: 171 % of control
dose: 11.1 mg/kg/injection, schedule: Q01DX001 (ip), vehicle: carboxymethylcellulose (CMC)
  T/C: 122 % of control
dose: 12.0 mg/kg/injection, schedule: Q01DX009 (ip), vehicle: carboxymethylcellulose (CMC)
  T/C: 110 % of control
dose: 16.6 mg/kg/injection, schedule: Q01DX001 (ip), vehicle: carboxymethylcellulose (CMC)
  T/C: 116 % of control and 123 % of control
dose: 18.0 mg/kg/injection, schedule: Q01DX009 (ip), vehicle: carboxymethylcellulose (CMC)
  T/C: 88 % of control
dose: 25.0 mg/kg/injection, schedule: Q01DX001 (ip), vehicle: carboxymethylcellulose (CMC)
  T/C: 122 % of control

## CCOC(=O)c1ccc(NC(=O)C2CC2)cc1
[14]
  T/C: 113 % of control
[15]
  T/C: 109 % of control
[16]
  T/C: 104 % of control

## Cc1ccc2c(CCCC(=O)O)c(C)c(=O)oc2c1
[17]
  T/C: 98 % of control
[9]
  T/C: 103 % of control
[18]
  T/C: 98 % of control
[10]
  T/C: 96 % of control
[19]
  T/C: 100 % of control
[11]
  T/C: 88 % of control

## Cc1ccc(C(=O)C(c2ccccc2)C(Cl)c2ccccc2)cc1 (stereo not given)
[14]
  T/C: 98 % of control
[9]
  T/C: 92 % of control
[15]
  T/C: 104 % of control
[10]
  T/C: 98 % of control
[16]
  T/C: 92 % of control
[11]
  T/C: 102 % of control

## COC(=O)NC1CCCC1I (stereo not given)
dose: 75.0 mg/kg/injection, schedule: Q01DX001 (ip), vehicle: saline
  T/C: 102 % of control
dose: 150.0 mg/kg/injection, schedule: Q01DX001 (ip), vehicle: saline
  T/C: 109 % of control
dose: 300.0 mg/kg/injection, schedule: Q01DX001 (ip), vehicle: saline
  T/C: 98 % of control

## Clc1ncnc2c1nnn2/N=C/c1ccccc1
dose: 15.0 mg/kg/injection, schedule: Q01DX Z (ip), vehicle: carboxymethylcellulose (CMC)
  T/C: 95 % of control
dose: 20.0 mg/kg/injection, schedule: Q01DX Z (ip), vehicle: carboxymethylcellulose (CMC)
  T/C: 91 % of control

## CC1(C)CCCC(Cl)(C(Cl)c2ccccc2)C1=O (stereo not given)
dose: 100.0 mg/kg/injection, schedule: Q01DX009 (ip), vehicle: saline
  T/C: 90 % of control
[20]
  T/C: 104 % of control
dose: 200.0 mg/kg/injection, schedule: Q01DX009 (ip), vehicle: saline
  T/C: 95 % of control
[21]
  T/C: 102 % of control
dose: 400.0 mg/kg/injection, schedule: Q01DX009 (ip), vehicle: saline
  T/C: 91 % of control
[22]
  T/C: 104 % of control

## O=C(ONC(=O)[C@@H]1CCCC[C@H]1C(=O)NOC(=O)c1ccccc1)c1ccccc1
dose: 50.0 mg/kg/injection, schedule: Q01DX001 (ip), vehicle: Klucel (hydroxypropylcellulose) (HPC)
  T/C: 97 % of control
dose: 50.0 mg/kg/injection, schedule: Q01DX009 (ip), vehicle: Klucel (hydroxypropylcellulose) (HPC)
  T/C: 92 % of control
[17]
  T/C: 97 % of control
[14]
  T/C: 92 % of control
[18]
  T/C: 97 % of control
[15]
  T/C: 103 % of control
[19]
  T/C: 96 % of control
[16]
  T/C: 97 % of control

## CCCCC(CCCC(=O)O)C(=O)O (stereo not given)
dose: 100.0 mg/kg/injection, schedule: Q01DX001 (ip), vehicle: carboxymethylcellulose (CMC)
  T/C: 93 % of control
dose: 200.0 mg/kg/injection, schedule: Q01DX001 (ip), vehicle: carboxymethylcellulose (CMC)
  T/C: 96 % of control
dose: 400.0 mg/kg/injection, schedule: Q01DX001 (ip), vehicle: carboxymethylcellulose (CMC)
  T/C: 98 % of control

## CCC(N)(CO)CO
[1]
  T/C: 98 % of control
[2]
  T/C: 95 % of control
[3]
  T/C: 95 % of control

## CCCCOc1ccc(OC(=O)Nc2ccc(C(=O)OCC)cc2)cc1
[14]
  T/C: 98 % of control
[15]
  T/C: 95 % of control
[16]
  T/C: 97 % of control

## O=C(Nc1ccc2c(c1)OCO2)N1CC1
dose: 10.0 mg/kg/injection, schedule: Q01DX009 (ip), vehicle: Klucel (hydroxypropylcellulose) (HPC)
  T/C: 102 % of control
dose: 20.0 mg/kg/injection, schedule: Q01DX009 (ip), vehicle: Klucel (hydroxypropylcellulose) (HPC)
  T/C: 92 % of control
dose: 20.0 mg/kg/injection, schedule: Q04DX003 (ip), vehicle: Klucel (hydroxypropylcellulose) (HPC)
  T/C: 103 % of control
dose: 40.0 mg/kg/injection, schedule: Q04DX003 (ip), vehicle: Klucel (hydroxypropylcellulose) (HPC)
  T/C: 113 % of control

## O=C(Cl)C12CCC(CC1)C1CCC2CC1
[20]
  T/C: 86 % of control
[21]
  T/C: 92 % of control
[22]
  T/C: 97 % of control

## Cc1cc(Cl)c(OCC(=O)O)c(Cl)c1
[4]
  T/C: 92 % of control
[5]
  T/C: 92 % of control
[6]
  T/C: 94 % of control

## O=Cc1ccc(/C=C2\C=Cc3ccccc32)cc1
[1]
  T/C: 93 % of control
[2]
  T/C: 91 % of control
[3]
  T/C: 92 % of control

## O=C(CCN1C(=O)c2ccccc2C1=O)c1ccc(O)cc1
[12]
  T/C: 97 % of control
[13]
  T/C: 98 % of control
[7]
  T/C: 91 % of control
